Patent US20140045689A1, “3,4-disubstituted pyrrole 2,5-diones and their use as fungicides” (priority 2011, published 2014)

How the values were obtained:
Pyrenophora teres = experiment: Activity against net blotch Pyrenophora teres in the microtiter test; type: cell-based; conditions: relative growth vs active substance-free control (=100%), absorption 405 nm, day 7 after inoculation
Phakopsora pachyrhizi = experiment: Protective control of soy bean rust on soy beans caused by Phakopsora pachyrhizi (greenhouse); type: in vivo; conditions: % diseased leaf area, soy bean seedlings sprayed 1 day before inoculation, untreated control 90
Protocol: (§1) The active substances were formulated separately or together as a stock solution comprising 25 mg of active substance which was made up to 10 ml using a mixture of acetone and/or dimethyl sulfoxide (DMSO) and the emulsifier Wettol EM 31 (wetting agent having emulsifying and dispersing action based on ethoxylated alkylphenols) in a volume ratio of solvent/emulsifier of 99 to 1. This solution was then made up to 100 ml using water. This stock solution was diluted with the solvent/emulsifier/water mixture described to the active substance concentration given below.
Leaves of pot-grown soy bean seedlings were sprayed to run-off with an aqueous suspension, containing the concentration of active ingredient or their mixture as described below. The plants were allowed to air-dry. The trial plants were cultivated for 1 day in a greenhouse chamber at 23-27° C. and a relative humidity between 60 and 80%. Then the plants were inoculated with spores of Phakopsora pachyrhizi. To ensure the success the artificial inoculation, the plants were transferred to a humid chamber with a relative humidity of about 95% and 20 to 24° C. for 24 h. The trial plants were cultivated for fourteen days in a greenhouse chamber at 23-27° C. and a relative humidity between 60 and 80%. The extent of fungal attack on the leaves was visually assessed as % diseased leaf area.

Septoria tritici = experiment: Preventative control of leaf blotch on wheat caused by Septoria tritici (Septtr P1, greenhouse); type: in vivo; conditions: % diseased leaf area, wheat seedlings sprayed 1 day before inoculation, untreated control 80
Protocol: as §1
Leaves of pot-grown wheat seedling were sprayed to run-off with an aqueous suspension of the active compound or their mixture, prepared as described. The plants were allowed to air-dry. At the following day the plants were inoculated with an aqueous spore suspension of Septoria tritici. Then the trial plants were immediately transferred to a humid chamber at 18-22° C. and a relative humidity close to 100%. After 4 days the plants were transferred to a chamber with 18-22° C. and a relative humidity close to 70%. After 4 weeks the extent of fungal attack on the leaves was visually assessed as % diseased leaf area.

Plasmopara viticola = type: in vivo; conditions: % diseased leaf area on lower leaf surface, grape cuttings sprayed 1 day before inoculation, untreated control 100
Pyricularia oryzae = type: cell-based; conditions: relative growth vs active substance-free control (=100%), absorption 405 nm, day 7 after inoculation

Question: With CN(C)C1=C(C#N)C(=O)N(C)C1=O as the compound, how does the melting point read?
Answer: 120 °C

Question: Which “Growth at 32 ppm (%)” value (Pyrenophora teres) does the source give for CN1C(=O)C(Oc2ccccc2)=C(Oc2ccccc2)C1=O here?
Answer: 1%

Question: With CCN1C(=O)C(Cl)=C(Sc2ccccc2S)C1=O as the compound, how does the “Disease (%) at 1000 pm Phakpa P1” value (Phakopsora pachyrhizi) read?
Answer: 3%

Question: With CCN1C(=O)C(Cl)=C(Sc2ccccc2O)C1=O as the compound, how does the “Disease (%) at 1000 pm Septtr P1” value (Septoria tritici) read?
Answer: 1%

Question: Which “Disease (%) at 1000 pm Plasvi P1” value (Plasmopara viticola) does the source give for COC1=C(OC)C(=O)N(C)C1=O here?
Answer: 20%

Question: For CN1C(=O)C(N)=C(Cl)C1=O, which “Disease (%) at 1000 pm Plasvi P1” value (Plasmopara viticola) is on record?
Answer: 7%

Question: Which “Growth at 32 ppm (%)” value (Pyrenophora teres) does the source give for CSC1=C(SC)C(=O)N(C)C1=O [drawing 56] here?
Answer: 0%

Question: Which “Growth at 32 ppm (%)” value (Pyrenophora teres) does the source give for CCN1C(=O)C(Cl)=C(Nc2ccccc2O)C1=O [drawing 57] here?
Answer: 15%

Question: With CCN1C(=O)C=C(Nc2ccccc2O)C1=O [drawing 58] as the compound, how does the “Growth at 32 ppm (%)” value (Pyrenophora teres) read?
Answer: 12%

Question: Which “Growth at 32 ppm (%)” value (Pyricularia oryzae) does the source give for CSC1=C(SC)C(=O)N(C)C1=O [drawing 59] here?
Answer: 0%

Question: Which “Growth at 32 ppm (%)” value (Pyricularia oryzae) does the source give for CCN1C(=O)C(Cl)=C(Nc2ccccc2O)C1=O [drawing 60] here?
Answer: 10%

Question: Which “Growth at 32 ppm (%)” value (Pyricularia oryzae) does the source give for CCN1C(=O)C=C(Nc2ccccc2O)C1=O [drawing 61] here?
Answer: 11%
